# Data as given in patent publication US20080085889A1, “Amidomethyl-Substituted 1-(Carboxyalkyl) Cyclopentyl-Carbonylamino-Benzazepine-N-Acetic Acid Compounds, Process and Intermediate Products for Their Preparation and Pharmaceutical Compositions Containing Them” (SOLVAY PHARMACEUTICALS GmbH, priority 2003, published 2008).
# Test system: pyramidal neurons of the hippocampal CA3 subfield
# Experiment: Traumatic brain injury: delayed apoptotic neuronal death, neuronal densities in CA3 hippocampus
# Type: in vivo, Adult Wistar rats
# Settings: for Neuronal densities CA3 hippocampus: traumatized right side, ± SEM
# Method: 1. Traumatic Brain Injury: Delayed Apoptotic Neuronal Death
# Contusing device. The contusing device consisted of a stainless steel tube, 40 cm in length, perforated at 1 cm intervals to prevent air compression in the tube. Adult Wistar rats, 230-270 g, were anesthetized with chloral hydrate, 400 mg/kg i.p., a craniotomy over the right hemisphere was made, the device guiding a falling weight onto the footplate resting upon the surface of the dura was placed perpendicular to the surface of the skull, and a force of 380 g×cm produced by a 20 g weight was selected to produce brain contusion. A maximum of 2.5 mm depression of the brain surface was allowed to avoid mechanical puncture of the dura. The center of the footplate was stereotaxically positioned 1.5 mm posterior and 2.5 mm lateral to the bregma. The rats underwent perfusion fixation 3 days after brain injury with a solution containing 4% paraformaldehyde in phosphate buffer.
# Intracerebroventricular injections: Compounds were administered intracerebroventricularly (=i.c.v.) by means of a Hamilton syringe in a volume of 5-15 μl. Injections were performed over 5 min, 15 min-8 hrs after trauma using the following stereotaxic coordinates: AP=−0.5 mm, L=−2 mm and V=−5.5 in relation to bregma (Swanson, L. W. (1992) Brain Maps: Structure of the Rat Brain, Elsevier, Amsterdam).
# Morphometric analysis in hippocampus. The damage in the hippocampal CA3 subfield was determined stereologically at 5 different rostrocaudal levels extending from 10.21 to 11.21 mm (Swanson, L. W. (1992) Brain Maps Structure of the Rat Brain, Elsevier, Amsterdam) and throughout its mediolateral axis three days after traumatic injury. To quantitatively assess neuronal loss in the hippocampus, stereological disector technique (Cruz-Orive, L. M. & Weibel, E. R. (1990) Am. J. Physiol. 258, L148-L156) was used to estimate numerical density (Nv) of pyramidal neurons. An unbiased counting frame (0.05 mm×0.05 mm; disector height 0.01 mm) and a high-aperture objective (×40) were used for sampling. Normal neurons were identified by the presence of the typical nuclei with clear nucleoplasm and distinct nucleolus surrounded by cytoplasm containing Nissl substance. The border between CA2 and CA3 subfields was considered as the point where the looser arrangement of large pyramidal cells goes into densely packed pyramidal cells of the subfield CA3. An arbitrary line connecting the lateral ends of the dentate granule cell layers was considered a junction between subfields CA3 and CA4.
# Dose response of the neuroprotective effect of the test substance of Example 3 when administered i.c.v. 15 min after trauma to adult Wistar rats was measured. Neuronal densities were determined in the CA3 hippocampal subfield as described in the methods. Densities of CA3 neurons ±Standard Error of […] (=SEM) in 6 stereotactic levels in the left non-traumatized side of vehicle treated rats and the traumatized right side of vehicle treated rats and in rats treated with the test substance of Example 3 were measured and the results listed in table 6 below.
# The time window of the neuroprotective effect of test substance of Example 3 when administered i.c.v. 2, 4 or 8 hrs after trauma to adult Wistar rats was measured. Neuronal densities were determined in the CA3 hippocampal subfield as described in the methods. Densities of CA3 neurons ±SEM in 6 stereotactic levels in the traumatized right side of rats treated with either vehicle or the test compound of Example 3 were measured and the results listed in table 7 below.
structure (smiles),measurement,setting,value
"CC(C)NC(=O)CC(CC1(C(=O)N[C@H]2CCc3ccccc3N(CC(=O)O)C2=O)CCCC1)C(=O)O (stereo in doubt) [Example 3, (2″rel1″)-2-{[(3S)-1-({[1-(carboxymethyl)-2-oxo-2,3,4,5-tetrahydro-1H-1-benzazepin-3-yl]amino}-carbonyl)cyclopentyl]methyl}-4-(isopropylamino)-4-oxobutyric acid]",Neuronal densities CA3 hippocampus,"3 μg i.c.v. 15 min after trauma, stereotactic level 10.21",98.40 ± 4.39 cells × 10^3/mm^3
same,Neuronal densities CA3 hippocampus,"3 μg i.c.v. 15 min after trauma, stereotactic level 10.41",89.00 ± 5.05 cells × 10^3/mm^3
same,Neuronal densities CA3 hippocampus,"3 μg i.c.v. 15 min after trauma, stereotactic level 10.61",72.80 ± 6.01 cells × 10^3/mm^3
same,Neuronal densities CA3 hippocampus,"3 μg i.c.v. 15 min after trauma, stereotactic level 10.81",84.20 ± 6.47 cells × 10^3/mm^3
same,Neuronal densities CA3 hippocampus,"3 μg i.c.v. 15 min after trauma, stereotactic level 11.01",86.00 ± 7.44 cells × 10^3/mm^3
same,Neuronal densities CA3 hippocampus,"3 μg i.c.v. 15 min after trauma, stereotactic level 11.21",95.40 ± 6.96 cells × 10^3/mm^3
same,effect on hippocampal neuronal loss,"10 μg i.c.v. 2, 4 or 8 hrs after trauma, P<0.001 at 2 and 4 hrs, P<0.01 for 8 hrs",partially prevented hippocampal neuronal loss
same,Neuronal densities CA3 hippocampus,"10 μg i.c.v. 15 min after trauma, stereotactic level 10.21",108.60 ± 4.30 cells × 10^3/mm^3
same,Neuronal densities CA3 hippocampus,"10 μg i.c.v. 15 min after trauma, stereotactic level 10.41",108.60 ± 5.34 cells × 10^3/mm^3
same,Neuronal densities CA3 hippocampus,"10 μg i.c.v. 15 min after trauma, stereotactic level 10.61",111.40 ± 7.09 cells × 10^3/mm^3
same,Neuronal densities CA3 hippocampus,"10 μg i.c.v. 15 min after trauma, stereotactic level 10.81",112.00 ± 6.42 cells × 10^3/mm^3
same,Neuronal densities CA3 hippocampus,"10 μg i.c.v. 15 min after trauma, stereotactic level 11.01",111.40 ± 7.11 cells × 10^3/mm^3
same,Neuronal densities CA3 hippocampus,"10 μg i.c.v. 15 min after trauma, stereotactic level 11.21",119.20 ± 3.70 cells × 10^3/mm^3
same,Neuronal densities CA3 hippocampus,"10 μg i.c.v. 2 hrs after trauma, stereotactic level 10.21",72.30 ± 4.80 cells × 10^3/mm^3
same,Neuronal densities CA3 hippocampus,"10 μg i.c.v. 2 hrs after trauma, stereotactic level 10.41",68.10 ± 6.30 cells × 10^3/mm^3
same,Neuronal densities CA3 hippocampus,"10 μg i.c.v. 2 hrs after trauma, stereotactic level 10.61",60.80 ± 5.60 cells × 10^3/mm^3
same,Neuronal densities CA3 hippocampus,"10 μg i.c.v. 2 hrs after trauma, stereotactic level 10.81",60.20 ± 9.40 cells × 10^3/mm^3
same,Neuronal densities CA3 hippocampus,"10 μg i.c.v. 2 hrs after trauma, stereotactic level 11.01",63.00 ± 11.70 cells × 10^3/mm^3
same,Neuronal densities CA3 hippocampus,"10 μg i.c.v. 2 hrs after trauma, stereotactic level 11.21",67.70 ± 14.00 cells × 10^3/mm^3
same,Neuronal densities CA3 hippocampus,"10 μg i.c.v. 4 hrs after trauma, stereotactic level 10.21",72.20 ± 5.70 cells × 10^3/mm^3
same,Neuronal densities CA3 hippocampus,"10 μg i.c.v. 4 hrs after trauma, stereotactic level 10.41",65.90 ± 8.80 cells × 10^3/mm^3
same,Neuronal densities CA3 hippocampus,"10 μg i.c.v. 4 hrs after trauma, stereotactic level 10.61",63.00 ± 6.30 cells × 10^3/mm^3
same,Neuronal densities CA3 hippocampus,"10 μg i.c.v. 4 hrs after trauma, stereotactic level 10.81",60.50 ± 10.50 cells × 10^3/mm^3
same,Neuronal densities CA3 hippocampus,"10 μg i.c.v. 4 hrs after trauma, stereotactic level 11.01",62.20 ± 13.50 cells × 10^3/mm^3
same,Neuronal densities CA3 hippocampus,"10 μg i.c.v. 4 hrs after trauma, stereotactic level 11.21",66.30 ± 15.90 cells × 10^3/mm^3
same,Neuronal densities CA3 hippocampus,"10 μg i.c.v. 8 hrs after trauma, stereotactic level 10.21",62.00 ± 4.90 cells × 10^3/mm^3
same,Neuronal densities CA3 hippocampus,"10 μg i.c.v. 8 hrs after trauma, stereotactic level 10.41",53.00 ± 6.44 cells × 10^3/mm^3
same,Neuronal densities CA3 hippocampus,"10 μg i.c.v. 8 hrs after trauma, stereotactic level 10.61",53.00 ± 6.00 cells × 10^3/mm^3
same,Neuronal densities CA3 hippocampus,"10 μg i.c.v. 8 hrs after trauma, stereotactic level 10.81",52.50 ± 4.48 cells × 10^3/mm^3
same,Neuronal densities CA3 hippocampus,"10 μg i.c.v. 8 hrs after trauma, stereotactic level 11.01",61.80 ± 4.48 cells × 10^3/mm^3
same,Neuronal densities CA3 hippocampus,"10 μg i.c.v. 8 hrs after trauma, stereotactic level 11.21",65.90 ± 4.90 cells × 10^3/mm^3
same,Neuronal densities CA3 hippocampus,"30 μg i.c.v. 15 min after trauma, stereotactic level 10.21",108.40 ± 3.15 cells × 10^3/mm^3
same,Neuronal densities CA3 hippocampus,"30 μg i.c.v. 15 min after trauma, stereotactic level 10.41",105.20 ± 5.76 cells × 10^3/mm^3
same,Neuronal densities CA3 hippocampus,"30 μg i.c.v. 15 min after trauma, stereotactic level 10.61",94.20 ± 5.10 cells × 10^3/mm^3
same,Neuronal densities CA3 hippocampus,"30 μg i.c.v. 15 min after trauma, stereotactic level 10.81",83.20 ± 7.10 cells × 10^3/mm^3
same,Neuronal densities CA3 hippocampus,"30 μg i.c.v. 15 min after trauma, stereotactic level 11.01",80.20 ± 7.45 cells × 10^3/mm^3
same,Neuronal densities CA3 hippocampus,"30 μg i.c.v. 15 min after trauma, stereotactic level 11.21",90.00 ± 9.24 cells × 10^3/mm^3
same,effect on hippocampal neuronal loss,"3, 10 or 30 μg i.c.v. 15 min after trauma, ANOVA P<0.001 for all three doses",partially prevented hippocampal neuronal loss
same,neuroprotective effect (time window),administered i.c.v. up to 8 hrs after trauma,neuroprotective effect was still evident
same,neuroprotective effect (dose response),i.c.v. after trauma,dose-dependent neuroprotective effect
same,most effective dose against hippocampal neuronal loss,"of 3, 10 or 30 μg i.c.v. 15 min after trauma",10 µg
